Patent US12637473B2, “MDM2 protein degraders” (THE REGENTS OF THE UNIVERSITY OF MICHIGAN, priority 2016, dated 2026)

Columns and labels:
Type in all cases: cell-based
[1] = test system: p53 target genes: p21, PUMA and BAX; experiment: Activation of p53 downstream target genes, quantitative real-time PCR; details: RS4; 11 cells; 0.3 μM; 3, 6, or 12 hours
Method: RS4; 11 cells were treated with Cpd. A (0.3 μM), Cpd. No. 15 (10 nM), and Cpd. No. 22 (10 nM) for 3, 6, or 12 hours, and then harvested and washed. Cellular mRNA samples were extracted from the cells and then subjected to Reverse Transcription and quantitative real-time PCR for the analysis of the mRNA levels of three representative p53 target genes: p21, that induces cell cycle arrest, and PUMA and BAX that leads to apoptosis. […] A, Cpd. No. 15, and Cpd. No. 22.

MV4-11 cell line = experiment: CellTiter-Glo Luminescent Cell Viability Assay, cell growth inhibition; details: Homo sapiens, 96 h, 4 days
Summary of the method: (§1)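 Cells plated at 2,000/well with serially diluted compounds, incubated 4 days at 37° C, 5% CO2. Viability read by CellTiter-Glo luminescence after 10-20 min at room temperature; IC50 from dose-response fit.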

RS4; 11 cell line = experiment: as above; details: Homo sapiens, 96 h, 4 days
Summary of the method: as §1

[2] = test system: RS4; 11 cells with stable shRNA knockdown of p53; experiment: Cell growth inhibition by WST assay, p53 knockdown cells; design: LogIC50: unit not given here; details: RS4;11 sh p53, 4 days; for IC50: Homo sapiens, 96 h
Method: (§2) RS4; 11 cells with stable shRNA knockdown of p53 or those transfected shRNA control vector were treated with Cpd. A, Cpd. B, Cpd. No. 14, Cpd. No. 21, Cpd. No. 15, and Cpd. No. 22 for 4 days, with a cell concentration of ˜15,000/well. Cell growth inhibition was determined by WST assay. See Table 7 (p53) and Table 8 (control). Significant increases in IC50 of the Compounds of the Disclosure in the p53 knockdown RS4; 11 cells were observed compared with that in the sh control cells. […] The p53 knockdown efficiency was determined by western blot for p53 protein levels with or without treatment of Cpd. A (1 μM) for 2 hours.

RS4; 11 cells = experiment: Cell growth inhibition by WST assay with Cpd. C co-treatment (CRBN competition); design: LogIC50: unit not given here; details: for HillSlope / IC50 / LogIC50: 4 days
Method: RS4; 11 cells were pre-incubated with different concentrations of Cpd. C to compete for the binding of phthalimide to CRBN, or DMSO, for 2 hours before adding Cpd. A, Cpd. No. 14, Cpd. No. 15, and Cpd. No. 22. The cells were then co-treated with 10, 20, or 30 μM Cpd. C and increasing concentrations of Cpd. A, Cpd. No. 14, Cpd. No. 15, and Cpd. No. 22 for 4 days, with a starting cell concentration of ˜15,000/well. Cell growth inhibition was determined by the WST assay. […] No. 14, Cpd. No. 15, and Cpd. No. 22 with co-treatment of Cpd. C. The structure of Cpd.

[3] = test system: RS4; 11 cells transfected shRNA control vector; experiment: Cell growth inhibition by WST assay, shRNA control cells; design: LogIC50: unit not given here; details: RS4;11 sh Control, 4 days; for IC50: Homo sapiens, 96 h
Method: as §2

MDM2 [4] = target: T1, MDM2 (Homo sapiens, UniProt Q00987); experiment: MDM2 degradation with or without proteasome inhibitor MG-132, western blotting; design: endogenous in cells; host or cells: RS4;11; details: FIG. 6
Method: RS4; 11 cells were pre-incubated with the proteasome inhibitor MG-132 (20 μM) or without any pre-incubation for 2 hours. Next, the cells were treated with Cpd. A (0.3 μM), Cpd. No. 14 (0.03 μM), Cpd. No. 15 (0.01 μM), and Cpd. No. 22 (0.01 μM) for 2 hours, then harvested and lysed. The cell lysates were subject to western blotting analysis.

MDM2 [5] = target: T1, MDM2; experiment: MDM2 degradation and p53 activation after pre-incubation with Cpd. C, Western blot; design: endogenous in cells; host or cells: RS4;11
Method: RS4; 11 cells were pre-incubated with 30 μM Cpd. C to compete for the binding of phthalimide to CRBN, or DMSO, for 2 hours before adding Cpd. A, Cpd. No. 14, Cpd. No. 15, and Cpd. No. 22. In the Western blot RS4; 11 cells were then co-treated with the indicated compounds at the indicated concentrations after pre-incubation. […] No. 14, Cpd. No. 15, and Cpd.

[6] = Homo sapiens, 96 h, without Cpd. C
[7] = RS4, 11 cells, pre-incubated with 30 μM Cpd. C for 2 hours

T1 sequence (Q00987 whole entry): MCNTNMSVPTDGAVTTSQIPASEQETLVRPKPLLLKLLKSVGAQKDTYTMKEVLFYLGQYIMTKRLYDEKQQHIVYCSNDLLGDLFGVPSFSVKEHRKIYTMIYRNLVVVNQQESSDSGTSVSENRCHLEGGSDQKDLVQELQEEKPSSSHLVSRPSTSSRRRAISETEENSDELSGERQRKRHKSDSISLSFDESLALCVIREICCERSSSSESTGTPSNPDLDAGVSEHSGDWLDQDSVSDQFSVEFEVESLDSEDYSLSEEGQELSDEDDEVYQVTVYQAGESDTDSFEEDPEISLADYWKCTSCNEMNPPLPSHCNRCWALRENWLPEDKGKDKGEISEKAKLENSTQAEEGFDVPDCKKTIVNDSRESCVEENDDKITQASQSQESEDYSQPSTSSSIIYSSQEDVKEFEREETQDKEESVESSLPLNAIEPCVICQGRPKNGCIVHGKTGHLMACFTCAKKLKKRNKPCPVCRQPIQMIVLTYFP

| SMILES | IC50 (MV4-11 cell line) [nM] | IC50 (RS4; 11 cell line) [nM] | IC50 [2] [nM] | HiliSlope [2] | LogIC50 [2] | HillSlope (RS4; 11 cells; + 10 uM Cpd. C) | IC50 (RS4; 11 cells; + 10 uM Cpd. C) [nM] | LogIC50 (RS4; 11 cells; + 10 uM Cpd. C) | HillSlope (RS4; 11 cells; + 20 uM Cpd. C) | IC50 (RS4; 11 cells; + 20 uM Cpd. C) [nM] | LogIC50 (RS4; 11 cells; + 20 uM Cpd. C) | HillSlope (RS4; 11 cells; + 30 uM Cpd. C) | IC50 (RS4; 11 cells; + 30 uM Cpd. C) [nM] | LogIC50 (RS4; 11 cells; + 30 uM Cpd. C) | HillSlope (RS4; 11 cells; without Cpd. C) | LogIC50 (RS4; 11 cells; without Cpd. C) | IC50 (RS4; 11 cells; [6]) [nM] | IC50 [3] [nM] | HiliSlope [3] | LogIC50 [3] | other results |
| --- | --- | --- | --- | --- | --- | --- | --- | --- | --- | --- | --- | --- | --- | --- | --- | --- | --- | --- | --- | --- | --- |
| O=C(O)c1ccc(NC(=O)[C@@H]2NC3(CCCCC3)[C@@]3(C(=O)Nc4cc(Cl)ccc43)[C@H]2c2cccc(Cl)c2F)cc1 [Cpd. A, reference compound] | 100 | 86 | 9830 | −0.4240 | 0.9926 | −1.569 | 48.1 | −1.317 | −1.406 | 39 | −1.409 | −1.411 | 36.5 | −1.438 | −1.496 | −1.030 | 93.3 | 97.5 | −1.155 | −1.011 | activation of p53 downstream target genes (mRNA levels of p21, PUMA, BAX) [1]: Significant activation |
| COCCONC(=O)c1ccc(NC(=O)[C@@H]2NC3(CCCCC3)[C@@]3(C(=O)Nc4cc(Cl)ccc43)[C@H]2c2cccc(Cl)c2F)cc1 [Cpd. B, reference compound] | – | – | 5670 | −0.7973 | 0.7537 | – | – | – | – | – | – | – | – | – | – | – | – | 85.3 | −0.9620 | −1.069 | – |
| O=C1CCC(N2C(=O)c3cccc(NCCOCCOCCNC(=O)c4ccc(NC(=O)[C@@H]5NC6(CCCCC6)[C@@]6(C(=O)Nc7cc(Cl)ccc76)[C@H]5c5cccc(Cl)c5F)cc4)c3C2=O)C(=O)N1 (stereo partly drawn) [Cpd. No. 14, (3′R,4'S,5′R)-6″-chloro-4′-(3-chloro-2-fluorophenyl)-N-(4-((2-(2-(2-((2-(2,6-dioxopiperidin-3-yl)-1,3-dioxoisoindolin-4-yl)amino)ethoxy)ethoxy)ethyl)carbamoyl)phenyl)-2″-oxodispiro[cyclohexane-1,2′-pyrrolidine-3′,3″-indoline]-5′-carboxamide] | 7.6 | 8.5 | 501 | −0.4731 | −0.3000 | −1.705 | 57 | −1.244 | −1.667 | 81.1 | −1.091 | −1.600 | 77.4 | −1.111 | −1.996 | −2.147 | 7.13 | 9.67 | −1.475 | −2.014 | MDM2 degradation, dependence on proteasome (MDM2 [4]): proteasome-dependent; MDM2 degradation, dependence on cereblon (CRBN) (MDM2 [5]; FIG. 7): cereblon (CRBN)-dependent; MDM2 degradation, competition by Cpd. C (MDM2 [5]; [7]): significantly competed by Cpd. C; p53 activation, competition by Cpd. C (MDM2 [5]; [7]): significantly competed by Cpd. C; shift of the dose response curves (RS4; 11 cells; co-treatment of Cpd. C (10, 20, or 30 μM)): Significant rightward shifts |
| O=C1CCC(N2Cc3c(NCCOCCOCCNC(=O)c4ccc(NC(=O)[C@@H]5NC6(CCCCC6)[C@@]6(C(=O)Nc7cc(Cl)ccc76)[C@H]5c5cccc(Cl)c5F)cc4)cccc3C2=O)C(=O)N1 (stereo partly drawn) [Cpd. No. 21, (3′R,4'S,5′R)-6″-chloro-4′-(3-chloro-2-fluorophenyl)-N-(4-((2-(2-(2-((2-(2,6-dioxopiperidin-3-yl)-1-oxoisoindolin-4-yl)amino)ethoxy)ethoxy)ethyl)carbamoyl)phenyl)-2″-oxodispiro[cyclohexane-1,2′-pyrrolidine-3′,3″-indoline]-5′-carboxamide] | 2 | 4.4 | 4160 | −0.4410 | 0.6196 | – | – | – | – | – | – | – | – | – | – | – | – | 13.1 | −1.448 | −1.882 | – |
| CCN1[C@@H](C(=O)NC23CCC(C(=O)NCCCOCCOCCOCCCNC(=O)COc4cccc5c4C(=O)N(C4CCC(=O)NC4=O)C5=O)(CC2)CC3)[C@H](c2cccc(Cl)c2F)[C@]2(C(=O)Nc3cc(Cl)ccc32)C12CCCCC2 (stereo partly drawn) [Cpd. No. 46, (3′R,4'S,5′R)-6″-chloro-4′-(3-chloro-2-fluorophenyl)-N-(4-((1-((2-(2,6-dioxopiperidin-3-yl)-1,3-dioxoisoindolin-4-yl)oxy)-2-oxo-7,10,13-trioxa-3-azahexadecan-16-yl)carbamoyl)bicyclo[2.2.2]octan-1-yl)-1′-ethyl-2″-oxodispiro[cyclohexane-1,2′-pyrrolidine-3′,3″-indoline]-5′-carboxamide] | 20 | 20 | – | – | – | – | – | – | – | – | – | – | – | – | – | – | – | – | – | – | – |
| CCN1[C@@H](C(=O)NC23CCC(C(=O)NCCOCCOCCOCCOCC(=O)N[C@H](C(=O)N4C[C@H](O)C[C@H]4C(=O)NCc4ccc(-c5scnc5C)cc4)C(C)(C)C)(CC2)CC3)[C@H](c2cccc(Cl)c2F)[C@]2(C(=O)Nc3cc(Cl)ccc32)C12CCCCC2 [Cpd. No. 48, (3′R,4'S,5′R)-6″-chloro-4′-(3-chloro-2-fluorophenyl)-1′-ethyl-N-(4-(((S)-16-((2S,4R)-4-hydroxy-2-((4-(4-methylthiazol-5-yl)benzyl)carbamoyl)pyrrolidine-1-carbonyl)-17,17-dimethyl-14-oxo-3,6,9,12-tetraoxa-15-azaoctadecyl)carbamoyl)bicyclo[2.2.2]octan-1-yl)-2″-oxodispiro[cyclohexane-1,2′-pyrrolidine-3′,3″-indoline]-5′-carboxamide] | 130 | 190 | – | – | – | – | – | – | – | – | – | – | – | – | – | – | – | – | – | – | – |
